Columns and labels:
[1] = target: Histamine H1 receptor (Homo sapiens) (UniProt P35367); test: hH1 Cerep panel; conditions: Compound concentration 10.0 uM
[2] = target: Serine/threonine-protein kinase 4 (Homo sapiens) (UniProt Q13043); test: serine/threonine kinase 4 Millipore kinase panel; conditions: Compound concentration 10.0 uM
[3] = target: T1, 5-hydroxytryptamine receptor 1A (Homo sapiens) (UniProt P08908); test: h5HT1A Cerep panel; conditions: Compound concentration 10.0 uM
T1 sequence (whole entry): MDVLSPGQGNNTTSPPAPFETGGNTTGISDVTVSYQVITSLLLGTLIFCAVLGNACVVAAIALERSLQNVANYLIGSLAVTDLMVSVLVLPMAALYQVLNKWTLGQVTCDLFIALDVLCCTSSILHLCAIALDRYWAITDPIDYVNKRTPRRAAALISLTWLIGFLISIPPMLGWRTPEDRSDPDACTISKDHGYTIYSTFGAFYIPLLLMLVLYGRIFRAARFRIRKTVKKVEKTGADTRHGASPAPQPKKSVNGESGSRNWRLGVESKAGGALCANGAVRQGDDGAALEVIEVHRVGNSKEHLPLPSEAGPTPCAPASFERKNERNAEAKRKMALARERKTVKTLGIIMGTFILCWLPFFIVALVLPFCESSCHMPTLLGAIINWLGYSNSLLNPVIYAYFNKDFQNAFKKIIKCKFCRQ

[4] = target: Serine/threonine-protein kinase D2 (Homo sapiens) (UniProt Q9BZL6); test: protein kinase D2 Millipore kinase panel; conditions: Compound concentration 10.0 uM
[5] = target: T2, Muscarinic acetylcholine receptor M4 (Homo sapiens) (UniProt P08173); test: hM4 Cerep panel; conditions: Compound concentration 10.0 uM
T2 sequence (whole entry): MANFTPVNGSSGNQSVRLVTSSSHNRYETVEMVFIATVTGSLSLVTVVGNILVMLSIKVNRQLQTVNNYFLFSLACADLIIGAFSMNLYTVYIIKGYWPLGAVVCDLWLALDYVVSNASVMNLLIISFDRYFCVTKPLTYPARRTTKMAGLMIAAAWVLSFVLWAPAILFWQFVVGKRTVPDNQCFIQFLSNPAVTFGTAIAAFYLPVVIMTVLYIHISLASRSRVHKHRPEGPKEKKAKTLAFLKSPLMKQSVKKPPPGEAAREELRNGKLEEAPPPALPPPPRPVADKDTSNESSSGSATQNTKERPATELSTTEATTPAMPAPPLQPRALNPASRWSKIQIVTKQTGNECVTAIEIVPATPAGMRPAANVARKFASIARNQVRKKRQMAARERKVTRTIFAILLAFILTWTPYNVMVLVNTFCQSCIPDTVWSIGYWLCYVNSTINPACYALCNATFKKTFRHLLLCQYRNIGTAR

[6] = target: Serine/threonine-protein kinase 24 (Homo sapiens) (UniProt Q9Y6E0); test: serine/threonine kinase 24 Millipore kinase panel; conditions: Compound concentration 10.0 uM
[7] = target: Mitogen-activated protein kinase 12 (Homo sapiens) (UniProt P53778); test: mitogen-activated protein kinase 12 Millipore kinase panel; conditions: Compound concentration 10.0 uM
[8] = target: D(2) dopamine receptor (Homo sapiens) (UniProt P14416); test: hD2S Cerep panel; conditions: Compound concentration 10.0 uM
[9] = target: Tyrosine-protein kinase Yes (Homo sapiens) (UniProt P07947); test: v-yes-1 Yamaguchi sarcoma viral oncogene homolog 1 Millipore kinase panel; conditions: Compound concentration 10.0 uM
Rattus norvegicus = organism: Rattus norvegicus; test: rNa channel Cerep panel; conditions: Compound concentration 10.0 uM
[10] = target: Serine/threonine-protein kinase Nek7 (Homo sapiens) (UniProt Q8TDX7); test: NIMA -related kinase 7 Millipore kinase panel; conditions: Compound concentration 10.0 uM
[11] = target: 5-hydroxytryptamine receptor 7 (Homo sapiens, UniProt P34969); test: GPCRScan assay: inhibition of 5-HT7A; set-up: radioligand conc. used [nm] 5.0 – 6.0, parental cells Stable HEK
[12] = target: Proto-oncogene tyrosine-protein kinase Src (Homo sapiens) (UniProt P12931); test: v-src sarcoma viral oncogene homolog Millipore kinase panel; conditions: Compound concentration 10.0 uM
[13] = target: Serine/threonine-protein kinase Nek6 (Homo sapiens) (UniProt Q9HC98); test: NIMA -related kinase 6 Millipore kinase panel; conditions: Compound concentration 10.0 uM
[14] = target: Receptor tyrosine-protein kinase erbB-4 (Homo sapiens) (UniProt Q15303); test: v-erb-a erythroblastic leukemia viral oncogene homolog 4 Millipore kinase panel; conditions: Compound concentration 10.0 uM
[15] = target: Fibroblast growth factor receptor 3 (Homo sapiens) (UniProt P22607); test: fibroblast growth factor receptor 3 Millipore kinase panel; conditions: Compound concentration 10.0 uM
[16] = target: D(1A) dopamine receptor (Homo sapiens) (UniProt P21728); test: hD1 Cerep panel; conditions: Compound concentration 10.0 uM
[17] = target: cGMP-specific 3',5'-cyclic phosphodiesterase (Homo sapiens, UniProt O76074); test: hPDE5A3 PDE scan
[18] = target: Cannabinoid receptor 2 (Homo sapiens) (UniProt P34972); test: hCB2 Cerep panel; conditions: Compound concentration 10.0 uM
[19] = target: Cyclin-dependent kinase 1/cyclin B (Homo sapiens) (UniProt P06493+P14635+Q8WWL7+O95067); test: cyclin-dependent kinase 1 / clyclinB Millipore kinase panel; format: protein-complex assay; conditions: Compound concentration 10.0 uM
[20] = target: Glutamate NMDA receptor (Rattus norvegicus) (UniProt P35439+Q00959+Q00960+Q00961+Q62645+Q8VHN2+Q9R1M7); test: rPCP Cerep panel; format: protein-complex assay; conditions: Compound concentration 10.0 uM
[21] = target: Melanocortin receptor 4 (Homo sapiens) (UniProt P32245); test: hMC4 Cerep panel; conditions: Compound concentration 10.0 uM
[22] = target: Phosphatidylinositol 4,5-bisphosphate 3-kinase catalytic subunit gamma isoform (Homo sapiens) (UniProt P48736); test: phosphoinositide-3-kinase, catalytic, gamma polypeptide Millipore kinase panel; conditions: Compound concentration 10.0 uM
[23] = target: Serine/threonine-protein kinase Nek11 (Homo sapiens) (UniProt Q8NG66); test: NIMA -related kinase 11 Millipore kinase panel; conditions: Compound concentration 10.0 uM
[24] = target: Serine/threonine-protein kinase MARK1 (Homo sapiens) (UniProt Q9P0L2); test: MAP/microtubule affinity-regulating kinase 1 Millipore kinase panel; conditions: Compound concentration 10.0 uM
[25] = target: cGMP-dependent protein kinase 2 (Homo sapiens) (UniProt Q13237); test: protein kinase, cGMP-dependent, type II Millipore kinase panel; conditions: Compound concentration 10.0 uM
[26] = target: Kappa-type opioid receptor (Rattus norvegicus) (UniProt P34975); test: rOP2 Cerep panel; conditions: Compound concentration 10.0 uM
[27] = target: Sodium-dependent noradrenaline transporter (Homo sapiens) (UniProt P23975); test: hNET Cerep panel; conditions: Compound concentration 10.0 uM
[28] = target: Protein kinase C delta type (Homo sapiens) (UniProt Q05655); test: protein kinase C, delta Millipore kinase panel; conditions: Compound concentration 10.0 uM
[29] = target: Vasoactive intestinal polypeptide receptor 1 (Homo sapiens) (UniProt P32241); test: hVPAC1 Cerep panel; conditions: Compound concentration 10.0 uM
[30] = target: Insulin receptor (Homo sapiens) (UniProt P06213); test: insulin receptor (activated) Millipore kinase panel; conditions: Compound concentration 10.0 uM
[31] = target: Rho-associated protein kinase 2 (Homo sapiens) (UniProt O75116); test: Rho-associated, coiled-coil containing protein kinase 2 Millipore kinase panel; conditions: Compound concentration 10.0 uM
[32] = target: Mast/stem cell growth factor receptor Kit (Homo sapiens) (UniProt P10721); test: v-kit Hardy-Zuckerman 4 feline sarcoma viral oncogene homolog Millipore kinase panel; conditions: Compound concentration 10.0 uM
[33] = target: MAP kinase-activated protein kinase 2 (Homo sapiens) (UniProt P49137); test: mitogen-activated protein kinase-activated protein kinase 2 Millipore kinase panel; conditions: Compound concentration 10.0 uM
[34] = target: Neuropeptide Y receptor type 1 (Homo sapiens) (UniProt P25929); test: hNPY1 Cerep panel; conditions: Compound concentration 10.0 uM
[35] = target: Neuromedin-K receptor (Homo sapiens) (UniProt P29371); test: hNK3 Cerep panel; conditions: Compound concentration 10.0 uM
[36] = target: Macrophage-stimulating protein receptor (Homo sapiens) (UniProt Q04912); test: macrophage stimulating 1 receptor Millipore kinase panel; conditions: Compound concentration 10.0 uM

Sequence of D(1A) dopamine receptor (Homo sapiens) (P21728 whole entry): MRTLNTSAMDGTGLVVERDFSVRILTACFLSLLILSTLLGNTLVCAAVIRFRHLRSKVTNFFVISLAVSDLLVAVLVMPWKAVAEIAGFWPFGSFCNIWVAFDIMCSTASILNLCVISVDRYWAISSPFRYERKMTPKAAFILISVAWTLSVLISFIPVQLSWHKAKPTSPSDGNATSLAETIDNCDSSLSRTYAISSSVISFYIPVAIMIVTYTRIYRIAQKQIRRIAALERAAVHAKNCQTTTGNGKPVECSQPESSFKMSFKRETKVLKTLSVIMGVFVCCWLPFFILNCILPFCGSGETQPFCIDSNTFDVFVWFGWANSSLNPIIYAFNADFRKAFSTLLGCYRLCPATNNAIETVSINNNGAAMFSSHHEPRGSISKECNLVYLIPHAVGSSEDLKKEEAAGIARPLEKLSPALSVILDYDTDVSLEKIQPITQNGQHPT
Sequence of Insulin receptor (Homo sapiens) (P06213 28-758 limits assumed): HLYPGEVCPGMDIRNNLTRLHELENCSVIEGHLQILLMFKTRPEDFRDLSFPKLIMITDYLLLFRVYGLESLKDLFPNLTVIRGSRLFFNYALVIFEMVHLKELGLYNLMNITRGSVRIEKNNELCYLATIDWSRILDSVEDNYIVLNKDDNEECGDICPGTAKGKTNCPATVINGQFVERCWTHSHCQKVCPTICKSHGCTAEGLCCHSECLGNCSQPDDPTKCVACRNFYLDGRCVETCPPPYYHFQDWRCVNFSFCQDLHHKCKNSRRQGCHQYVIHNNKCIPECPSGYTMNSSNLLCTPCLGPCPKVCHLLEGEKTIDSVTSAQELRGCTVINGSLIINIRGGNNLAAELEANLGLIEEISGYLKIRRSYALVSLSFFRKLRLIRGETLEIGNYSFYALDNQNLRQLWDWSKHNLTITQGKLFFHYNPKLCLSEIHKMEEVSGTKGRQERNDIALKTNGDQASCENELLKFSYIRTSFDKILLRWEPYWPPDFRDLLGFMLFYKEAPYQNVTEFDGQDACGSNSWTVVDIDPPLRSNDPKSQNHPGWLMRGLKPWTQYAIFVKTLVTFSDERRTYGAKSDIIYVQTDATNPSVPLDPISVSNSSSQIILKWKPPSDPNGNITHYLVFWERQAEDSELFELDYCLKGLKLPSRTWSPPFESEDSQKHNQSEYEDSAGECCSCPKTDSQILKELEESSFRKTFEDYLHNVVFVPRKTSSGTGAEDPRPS
Sequence of Insulin receptor (Homo sapiens) (P06213 763-1382 limits assumed): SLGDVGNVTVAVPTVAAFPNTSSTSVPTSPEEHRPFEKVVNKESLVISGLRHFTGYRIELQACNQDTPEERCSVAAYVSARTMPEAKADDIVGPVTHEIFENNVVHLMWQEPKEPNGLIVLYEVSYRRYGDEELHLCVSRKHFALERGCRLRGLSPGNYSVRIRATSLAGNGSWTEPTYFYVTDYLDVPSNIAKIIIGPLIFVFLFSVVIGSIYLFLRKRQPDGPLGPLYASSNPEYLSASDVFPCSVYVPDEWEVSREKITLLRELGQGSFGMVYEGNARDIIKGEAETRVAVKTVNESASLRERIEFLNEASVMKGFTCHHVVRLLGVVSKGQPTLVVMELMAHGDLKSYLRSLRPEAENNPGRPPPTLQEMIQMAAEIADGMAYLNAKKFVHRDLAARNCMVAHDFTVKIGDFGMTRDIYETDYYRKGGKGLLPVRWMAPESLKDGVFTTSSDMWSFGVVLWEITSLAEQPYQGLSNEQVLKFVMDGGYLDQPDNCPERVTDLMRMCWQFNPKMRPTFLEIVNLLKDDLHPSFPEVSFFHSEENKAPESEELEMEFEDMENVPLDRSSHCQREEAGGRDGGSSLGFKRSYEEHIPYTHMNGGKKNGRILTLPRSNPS
Sequence of Vasoactive intestinal polypeptide receptor 1 (Homo sapiens) (P32241 whole entry): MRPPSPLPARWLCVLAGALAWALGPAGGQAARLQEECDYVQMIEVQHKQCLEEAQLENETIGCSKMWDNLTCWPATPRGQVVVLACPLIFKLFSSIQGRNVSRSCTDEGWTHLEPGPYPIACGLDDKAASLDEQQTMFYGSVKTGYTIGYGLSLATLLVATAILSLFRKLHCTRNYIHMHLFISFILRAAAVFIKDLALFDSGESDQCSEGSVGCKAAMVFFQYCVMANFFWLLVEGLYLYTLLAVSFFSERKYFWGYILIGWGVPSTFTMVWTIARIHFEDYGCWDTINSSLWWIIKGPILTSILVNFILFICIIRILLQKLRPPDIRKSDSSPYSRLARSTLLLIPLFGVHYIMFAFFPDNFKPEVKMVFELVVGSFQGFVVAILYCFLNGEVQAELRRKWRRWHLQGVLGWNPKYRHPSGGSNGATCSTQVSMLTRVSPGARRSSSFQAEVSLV
Sequence of Kappa-type opioid receptor (Rattus norvegicus) (P34975 whole entry): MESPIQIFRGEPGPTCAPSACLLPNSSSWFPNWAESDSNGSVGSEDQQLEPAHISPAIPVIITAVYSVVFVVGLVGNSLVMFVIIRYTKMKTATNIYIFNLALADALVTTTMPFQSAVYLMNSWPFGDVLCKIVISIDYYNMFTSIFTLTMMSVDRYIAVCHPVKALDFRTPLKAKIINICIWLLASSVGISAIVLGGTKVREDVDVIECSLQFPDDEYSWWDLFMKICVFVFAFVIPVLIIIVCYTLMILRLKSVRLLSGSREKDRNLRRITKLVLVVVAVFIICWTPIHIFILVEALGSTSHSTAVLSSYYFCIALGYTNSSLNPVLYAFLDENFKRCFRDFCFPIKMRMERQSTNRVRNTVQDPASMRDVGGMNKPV
Sequence of Neuromedin-K receptor (Homo sapiens) (P29371 whole entry): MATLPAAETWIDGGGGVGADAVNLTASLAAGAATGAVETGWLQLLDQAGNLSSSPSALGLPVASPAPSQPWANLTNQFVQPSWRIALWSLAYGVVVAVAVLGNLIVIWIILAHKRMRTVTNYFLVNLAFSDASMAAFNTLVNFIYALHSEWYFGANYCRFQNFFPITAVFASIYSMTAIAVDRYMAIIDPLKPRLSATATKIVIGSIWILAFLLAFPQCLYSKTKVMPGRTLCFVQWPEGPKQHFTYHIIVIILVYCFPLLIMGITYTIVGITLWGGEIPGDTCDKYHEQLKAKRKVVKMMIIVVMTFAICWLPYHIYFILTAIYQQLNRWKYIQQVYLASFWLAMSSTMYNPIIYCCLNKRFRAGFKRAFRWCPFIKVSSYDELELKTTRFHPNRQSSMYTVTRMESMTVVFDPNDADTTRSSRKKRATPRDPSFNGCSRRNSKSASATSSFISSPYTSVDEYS
Sequence of Serine/threonine-protein kinase D2 (Homo sapiens) (Q9BZL6 whole entry): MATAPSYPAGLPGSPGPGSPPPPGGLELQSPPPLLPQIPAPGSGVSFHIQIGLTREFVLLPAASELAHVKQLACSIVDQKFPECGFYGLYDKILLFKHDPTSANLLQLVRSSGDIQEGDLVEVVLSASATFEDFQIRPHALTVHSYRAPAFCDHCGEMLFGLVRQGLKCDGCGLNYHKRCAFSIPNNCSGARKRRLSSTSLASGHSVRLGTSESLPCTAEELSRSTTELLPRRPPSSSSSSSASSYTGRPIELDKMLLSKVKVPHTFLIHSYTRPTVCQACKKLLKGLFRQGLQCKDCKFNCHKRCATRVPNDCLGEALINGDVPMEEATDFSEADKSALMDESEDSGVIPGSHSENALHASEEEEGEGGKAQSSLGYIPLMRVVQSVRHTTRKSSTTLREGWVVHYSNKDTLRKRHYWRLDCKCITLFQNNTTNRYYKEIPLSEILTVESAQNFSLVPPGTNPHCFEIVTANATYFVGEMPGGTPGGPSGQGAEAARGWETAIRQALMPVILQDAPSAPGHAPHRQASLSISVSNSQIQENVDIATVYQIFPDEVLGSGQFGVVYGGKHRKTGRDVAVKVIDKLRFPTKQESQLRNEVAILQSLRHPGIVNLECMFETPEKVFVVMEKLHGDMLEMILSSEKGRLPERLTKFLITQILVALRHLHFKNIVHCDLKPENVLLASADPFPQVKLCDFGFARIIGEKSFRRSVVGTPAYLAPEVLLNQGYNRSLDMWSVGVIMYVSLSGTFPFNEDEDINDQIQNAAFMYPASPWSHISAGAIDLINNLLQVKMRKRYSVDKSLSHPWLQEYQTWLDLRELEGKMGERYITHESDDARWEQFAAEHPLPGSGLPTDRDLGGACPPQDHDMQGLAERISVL
Sequence of Serine/threonine-protein kinase 24 (Homo sapiens) (Q9Y6E0 whole entry, looked up): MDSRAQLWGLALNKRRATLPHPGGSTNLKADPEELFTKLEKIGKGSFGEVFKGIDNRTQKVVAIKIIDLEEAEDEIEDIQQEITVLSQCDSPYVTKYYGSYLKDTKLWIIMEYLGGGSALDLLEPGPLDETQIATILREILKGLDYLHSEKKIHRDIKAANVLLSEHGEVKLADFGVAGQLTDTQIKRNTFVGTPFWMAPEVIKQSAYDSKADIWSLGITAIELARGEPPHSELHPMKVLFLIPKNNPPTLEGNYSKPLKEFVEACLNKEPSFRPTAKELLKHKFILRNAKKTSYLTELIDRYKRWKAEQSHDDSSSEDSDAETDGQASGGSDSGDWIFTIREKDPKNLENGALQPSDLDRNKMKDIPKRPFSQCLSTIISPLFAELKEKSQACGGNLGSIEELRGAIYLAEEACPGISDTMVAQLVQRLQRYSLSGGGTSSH
Sequence of Tyrosine-protein kinase Yes (Homo sapiens) (P07947 2-543 limits assumed): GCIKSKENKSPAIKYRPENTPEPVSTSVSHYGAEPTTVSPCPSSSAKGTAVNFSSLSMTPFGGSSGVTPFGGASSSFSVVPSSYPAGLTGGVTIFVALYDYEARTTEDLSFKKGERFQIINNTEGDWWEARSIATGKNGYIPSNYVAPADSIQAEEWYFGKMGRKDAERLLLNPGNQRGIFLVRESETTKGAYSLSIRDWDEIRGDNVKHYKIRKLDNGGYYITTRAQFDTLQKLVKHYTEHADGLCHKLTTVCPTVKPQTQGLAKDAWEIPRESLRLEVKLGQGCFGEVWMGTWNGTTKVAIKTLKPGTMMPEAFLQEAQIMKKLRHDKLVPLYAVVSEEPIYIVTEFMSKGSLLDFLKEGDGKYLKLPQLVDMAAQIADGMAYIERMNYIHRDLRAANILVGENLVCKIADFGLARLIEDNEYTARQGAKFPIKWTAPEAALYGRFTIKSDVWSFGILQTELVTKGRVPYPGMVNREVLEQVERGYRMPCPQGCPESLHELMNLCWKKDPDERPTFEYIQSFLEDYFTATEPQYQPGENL

## COCCc1ccc(-c2c(C)nc3c(N4CCOCC4)ccnn23)cn1 [JNJ-42396302]
[1]
  effect: 2.05%
[2]
  inhibition: -7%
[3]
  effect: 8.65%
[4]
  inhibition: 2%
[5]
  effect: -3.05%
[6]
  inhibition: 9%
[7]
  inhibition: 2%
[8]
  effect: 1.7%
[9]
  inhibition: 0%
Rattus norvegicus
  effect: -5.55%
[10]
  inhibition: 2%
[11]
  Ki: 8.74 µM
[12]
  inhibition: -5%
[13]
  inhibition: 1%
[14]
  inhibition: 9%
[15]
  inhibition: -2%
[16]
  effect: 6.2%
[17]
  Ki: 8.5 µM
[18]
  effect: 6.1%
[19]
  inhibition: 5%
[20]
  effect: -3.5%
[21]
  effect: 6.35%
[22]
  inhibition: -4%
[23]
  inhibition: -2%
[24]
  inhibition: -6%
[25]
  inhibition: 1%
[26]
  effect: 1.7%
[27]
  effect: 6.7%
[28]
  inhibition: -2%
[29]
  effect: 2.05%
[30]
  inhibition: -2%
[31]
  inhibition: -3%
[32]
  inhibition: 4%
[33]
  inhibition: -5%
[34]
  effect: 0.15%
[35]
  effect: -8.65%
[36]
  inhibition: 3%
